Like-named read-outs stand apart in the source and are kept apart here.
Test system: Lung cancer cell line NCI-H358 containing KRas G12C mutation
Assay: Assay for cell proliferation (Cell-titer Glo, 5 days)
Format: cell-based, human
Conditions: for IC50: NCI-H358, 5 days, Cell-titer Glo, read-out: IC50 (nM), Inhibition of NCI-H358 Cell Proliferation
Experimental: One hundred fifty microliter (150 μL) of media containing 2000 cells per well were seeded into each well of a 96-well culture plate and left to attach overnight in a 37° C. incubator with 5% CO2. Diluted compounds of 0.75 μL for each well were added by liquid handler at a final concentration of 0.5% DMSO. Cells were treated for 5 days in the incubator. Cell-titer Glo (CTG) kit (Promega) was used to assess cell proliferation. Of note, 120 μL of CTG reagent was added to each well and incubated at RT for 10 minutes.

Row | SMILES | IC50 (Homo sapiens, NCI-H358, 120 h) | also measured
1 | C=CC(=O)N1C[C@H](C)N(c2nc(=O)n(-c3c(C(C)C)ncnc3C(C)C)c3nc(-c4c(N)cccc4F)c(Cl)cc23)C[C@H]1C [4-((2S,5R)-4-acryloyl-2,5-dimethylpiperazin-1-yl)-7-(2-amino-6-fluorophenyl)-6-chloro-1-(4,6-diisopropylpyrimidin-5-yl)pyrido[2,3-d]pyrimidin-2(1H)-one] | 1.6 nM | fold more potent: 2-amino-6-fluoro-phenyl compound vs. corresponding 2-fluoro-phenyl compound at R8 (NCI-H358 IC50 comparison): only slightly more potent
2 | C=CC(=O)N1C[C@H](C)N(c2nc(=O)n(-c3c(C(C)C)ncnc3C(C)C)c3nc(-c4ccccc4F)c(F)cc23)C[C@H]1C [4-((2S,5R)-4-acryloyl-2,5-dimethylpiperazin-1-yl)-7-(2-fluorophenyl)-1-(4,6-diisopropylpyrimidin-5-yl)-6-fluoropyrido[2,3-d]pyrimidin-2(1H)-one] | 19 nM | –
3 | C=CC(=O)N1C[C@H](C)N(c2nc(=O)n(-c3c(C(C)C)ncnc3C(C)C)c3nc(-c4ccccc4F)c(Cl)cc23)C[C@H]1C [4-((2S,5R)-4-acryloyl-2,5-dimethylpiperazin-1-yl)-7-(2-fluorophenyl)-6-chloro-1-(4,6-diisopropylpyrimidin-5-yl)pyrido[2,3-d]pyrimidin-2(1H)-one] | 4 nM | –
4 | C=CC(=O)N1CCN(c2nc(=O)n(-c3c(C(C)C)ncnc3C(C)C)c3nc(-c4ccccc4F)c(Cl)cc23)C[C@@H]1CC#N [Compound 2] | 23.9 nM | –
5 | C=CC(=O)N1CCN(c2nc(=O)n(-c3c(C4CC4)ncnc3C3CC3)c3nc(-c4cccc5[nH]nc(N)c45)c(Cl)cc23)[C@@H](C)C1 [Compound 3] | 661 nM | –
6 | C=CC(=O)N1CCN(c2nc(=O)n(-c3c(C4CC4)ncnc3C3CC3)c3nc(-c4ncccc4F)c(Cl)cc23)[C@@H](C)C1 [Compound 4] | 130 nM | –
7 | C=CC(=O)N1CCN(c2nc(=O)n(-c3c(C4CC4)ncnc3C3CC3)c3nc(-c4ccccc4F)c(Cl)cc23)C[C@@H]1CC#N [Compound 5] | 172 nM | –
8 | C=CC(=O)N1CCN(c2nc(=O)n(-c3c(C(C)C)nc(N4CCC4)nc3C(C)C)c3nc(-c4ccccc4F)c(Cl)cc23)[C@@H](C)C1 [Compound 7] | 30.6 nM | –
9 | C=CC(=O)N1CCN(c2nc(=O)n(-c3c(C(C)C)nc(NC)nc3C(C)C)c3nc(-c4ccccc4F)c(Cl)cc23)[C@@H](C)C1 [Compound 11] | 9.2 nM | –
10 | C=CC(=O)N1CCN(c2nc(=O)n(-c3c(C(C)C)nc(N(C)C)nc3C(C)C)c3nc(-c4ccccc4F)c(Cl)cc23)[C@@H](C)C1 [Compound 12] | 107 nM | –
11 | C=CC(=O)N1CCN(c2nc(=O)n(-c3c(C(C)C)nc(OCC(C)(C)O)nc3C(C)C)c3nc(-c4ccccc4F)c(Cl)cc23)[C@@H](C)C1 [Compound 16] | 8 nM | –
12 | C=CC(=O)N1CCN(c2nc(=O)n(-c3c(C(C)C)nc(OC4CCN(C)C4)nc3C(C)C)c3nc(-c4ccccc4F)c(Cl)cc23)[C@@H](C)C1 (stereo partly drawn) [Compound 17] | 14.4 nM | –
13 | C=CC(=O)N1CCN(c2nc(=O)n(-c3c(C(C)C)nc(OC4CN(C)C4)nc3C(C)C)c3nc(-c4ccccc4F)c(Cl)cc23)[C@@H](C)C1 [Compound 18] | 16 nM | –
14 | C=CC(=O)N1CCN(c2nc(=O)n(-c3c(C(C)C)nc(OCC(C)O)nc3C(C)C)c3nc(-c4ccccc4F)c(Cl)cc23)[C@@H](C)C1 (stereo partly drawn) [Compound 19] | 5 nM | –
15 | C=CC(=O)N1CCN(c2nc(=O)n(-c3c(C4CC4)nc(C#N)nc3C3CC3)c3nc(-c4c(O)cccc4F)c(F)cc23)[C@@H](C)C1 [Compound 25] | 52.5 nM | –
16 | C=CC(=O)N1CCN(c2nc(=O)n(-c3c(C4CC4)nc(C#N)nc3C3CC3)c3nc(-c4ccccc4F)c(F)cc23)[C@@H](C)C1 [Compound 26] | 168 nM | –
17 | C=CC(=O)N1CCN(c2nc(=O)n(-c3c(C4CC4)nc(C)nc3C3CC3)c3nc(-c4ccccc4F)c(F)cc23)[C@@H](C)C1 [Compound 27] | 69.9 nM | –
18 | C=CC(=O)N1CCN(c2nc(=O)n(-c3c(C4CC4)nc(N)nc3C3CC3)c3nc(-c4ccccc4F)c(F)cc23)[C@@H](C)C1 [Compound 30] | 52.7 nM | –
19 | C=CC(=O)N1[C@H](C)CN(c2nc(=O)n(-c3c(C(C)C)nc(OCCN(C)C)nc3C(C)C)c3nc(-c4ccccc4F)c(Cl)cc23)C[C@@H]1C [Compound 31] | 28.2 nM | –
20 | C=CC(=O)N1CCN(c2nc(=O)n(-c3c(C(C)C)nc(OCCOC)nc3C(C)C)c3nc(-c4ccccc4F)c(Cl)cc23)[C@@H](C)C1 [Compound 32] | 8.5 nM | –
21 | C=CC(=O)N1CCN(c2nc(=O)n(-c3c(C4CC4)nc(NCCN(C)C)nc3C3CC3)c3nc(-c4ccccc4F)c(F)cc23)[C@@H](C)C1 [Compound 33] | 67.5 nM | –
22 | C=CC(=O)N1CCN(c2nc(=O)n(-c3c(C4CC4)nc(N4CC(N(C)C)C4)nc3C3CC3)c3nc(-c4ccccc4F)c(F)cc23)[C@@H](C)C1 [Compound 34] | 58.3 nM | –
23 | C=CC(=O)N1CCN(c2nc(=O)n(-c3c(C4CC4)nc(NC(C)=O)nc3C3CC3)c3nc(-c4ccccc4F)c(F)cc23)[C@@H](C)C1 [Compound 35] | 58.2 nM | –

Row | SMILES | IC50 (Homo sapiens, NCI-H358, 120 h) | also measured
24 | C=CC(=O)N1CCN(c2nc(=O)n(-c3c(C4CC4)ncnc3C3CC3)c3nc(-c4cccc5[nH]nc(N)c45)c(F)cc23)[C@@H](C)C1 [Compound 36] | > 3000 nM | –
25 | C=CC(=O)N1C[C@H](C)N(c2nc(=O)n(-c3c(C4CC4)ncnc3C3CC3)c3nc(-c4cccc5[nH]nc(N)c45)c(F)cc23)C[C@H]1C [Compound 37] | > 3000 nM | –
26 | C=CC(=O)N1[C@H](C)CN(c2nc(=O)n(-c3c(C4CC4)ncnc3C3CC3)c3nc(-c4cccc5[nH]nc(N)c45)c(F)cc23)C[C@@H]1C [Compound 38] | > 3000 nM | –
27 | C=CC(=O)N1CCN(c2nc(=O)n(-c3c(C4CC4)ncnc3C3CC3)c3nc(-c4ccccc4F)c(F)cc23)[C@@H](C)C1 [Compound 39] | 38.2 nM | –
28 | C=CC(=O)N1C[C@H](C)N(c2nc(=O)n(-c3c(C4CC4)ncnc3C3CC3)c3nc(-c4ccccc4F)c(F)cc23)C[C@H]1C [Compound 42] | 39.5 nM | IC50: 38.5 nM
29 | C=CC(=O)N1C[C@H](C)N(c2nc(=O)n(-c3c(C4CC4)ncnc3C3CC3)c3nc(-c4c(O)cccc4F)c(F)cc23)C[C@H]1C [Compound 43] | 15.5 nM | –
30 | C=CC(=O)N1[C@H](C)CN(c2nc(=O)n(-c3c(C4CC4)ncnc3C3CC3)c3nc(-c4ccccc4F)c(F)cc23)C[C@@H]1C [Compound 45] | 299 nM | –
31 | C=CC(=O)N1[C@H](C)CN(c2nc(=O)n(-c3c(C4CC4)ncnc3C3CC3)c3nc(-c4c(O)cccc4F)c(F)cc23)C[C@@H]1C [Compound 46] | 81.5 nM | –
32 | C=CC(=O)N1[C@H](C)CN(c2nc(=O)n(-c3c(C4CC4)ncnc3C3CC3)c3nc(-c4c(N)cccc4F)c(F)cc23)C[C@@H]1C [Compound 47] | 23.8 nM | –
33 | C=CC(=O)N1CCN(c2nc(=O)n(-c3c(C(C)C)nc(C)nc3C(C)C)c3nc(-c4ccccc4F)c(F)cc23)[C@@H](C)C1 [Compound 48] | 25.8 nM | –
34 | C=CC(=O)N1C[C@H](C)N(c2nc(=O)n(-c3c(C(C)C)nc(C)nc3C(C)C)c3nc(-c4ccccc4F)c(F)cc23)C[C@H]1C [Compound 49] | 25 nM | –
35 | C=CC(=O)N1C[C@H](C)N(c2nc(=O)n(-c3c(C4CC4)nc(C)nc3C3CC3)c3nc(-c4ccccc4F)c(F)cc23)C[C@H]1C [Compound 50] | 107 nM | –
36 | C=CC(=O)N1C[C@H](C)N(c2nc(=O)n(-c3c(C4CC4)nc(C)nc3C3CC3)c3nc(-c4c(N)cccc4F)c(F)cc23)C[C@H]1C [Compound 51] | 12.5 nM | –
37 | C=CC(=O)N1[C@H](C)CN(c2nc(=O)n(-c3c(C4CC4)nc(C)nc3C3CC3)c3nc(-c4ccccc4F)c(F)cc23)C[C@@H]1C [Compound 53] | 617 nM | –
38 | C=CC(=O)N1[C@H](C)CN(c2nc(=O)n(-c3c(C4CC4)nc(C)nc3C3CC3)c3nc(-c4c(N)cccc4F)c(F)cc23)C[C@@H]1C [Compound 54] | 34.6 nM | –
39 | C=CC(=O)N1[C@H](C)CN(c2nc(=O)n(-c3c(C4CC4)nc(C)nc3C3CC3)c3nc(-c4c(O)cccc4F)c(F)cc23)C[C@@H]1C [Compound 55] | 74.3 nM | –
40 | C=CC(=O)N1CCN(c2nc(=O)n(-c3c(C(C)C)nc(N(C)S(C)(=O)=O)nc3C(C)C)c3nc(-c4ccccc4F)c(F)cc23)[C@@H](C)C1 [Compound 56] | 27 nM | –
41 | C=CC(=O)N1CCN(c2nc(=O)n(-c3c(C)ccnc3C(C)C)c3nc(-c4cccc5[nH]nc(N)c45)c(F)cc23)[C@@H](C)C1 [Compound 59] | > 3000 nM | –
42 | C=CC(=O)N1CCN(c2nc(=O)n(-c3c(C)cc(S(C)(=O)=O)nc3C(C)C)c3nc(-c4c(O)cccc4F)c(F)cc23)[C@@H](C)C1 [Compound 60] | 81.7 nM | –
43 | C=CC(=O)N1CCN(c2nc(=O)n(-c3c(C4CC4)nc(OC)nc3C3CC3)c3nc(-c4ccccc4F)c(F)cc23)[C@@H](C)C1 [Compound 61] | 71.2 nM | –
44 | C=CC(=O)N1CCN(c2nc(=O)n(-c3c(C4CC4)nc(OC)nc3C3CC3)c3nc(-c4c(O)cccc4F)c(F)cc23)[C@@H](C)C1 [Compound 62] | 15.9 nM | –
45 | C=CC(=O)N1CCN(c2nc(=O)n(-c3c(C(C)C)nc4c(ncn4C)c3C)c3nc(-c4ccccc4F)c(Cl)cc23)[C@@H](C)C1 [Compound 65] | 17.6 nM | –
46 | C=CC(=O)N1CCN(c2nc(=O)n(-c3c(C(C)C)cc4scnc4c3C)c3nc(-c4ccccc4F)c(Cl)cc23)[C@@H](C)C1 [Compound 66] | 19.9 nM | –

From patent publication US12110289B2, “Heterocyclic compounds, preparation methods and uses thereof” (InventisBio Co., Ltd., priority 2020, dated 2024)
